# Data taken from patent US8952024B2, “Herbicidal pyrimidone derivatives” (E I du Pont de Nemours and Company, priority 2009, dated 2015).
# Test system: Italian ryegrass (Lolium multiflorum)
# Test: Test D pre-/postemergence plant response
# Assay type: in vivo
# Conditions: Postemergence, 31 g ai/ha; scale 0 to 100
# How it was run: (§1)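 Seeds were sown in a loam–sand blend and sprayed preemergence with compound in a non-phytotoxic solvent mixture containing surfactant; plants at 2–18 cm (1- to 4-leaf stage) received the same formulation postemergence. After 14 to 21 days in a greenhouse, injury was rated visually against untreated controls (0 = no effect, 100 = complete control).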
row,SMILES,"Plant response rating, Ryegrass, Italian"
1,O=C1CCCC(O)=C1C(=O)c1cnc(-c2ccccc2)n(CC2CCCO2)c1=O (centres unmarked) [Compound 59],0
2,COCCn1c(-c2ccccc2)ncc(C(=O)C2=C(O)CCCC2=O)c1=O [Compound 85],0
3,COCCn1c(-c2cccc(C)c2)ncc(C(=O)C2=C(O)C3CCC(C3)C2=O)c1=O (centres unmarked) [Compound 233],0

# Same assay, conditions: Postemergence, 62 g ai/ha; scale 0 to 100 (0 no effect, 100 complete control)
row,SMILES,"Plant response rating, Ryegrass, Italian"
1,O=C1CCCC(O)=C1C(=O)c1cnc(-c2ccccc2)n(CC2CCCO2)c1=O (centres unmarked) [Compound 59],5
2,COCCn1c(-c2ccccc2)ncc(C(=O)C2=C(O)CCCC2=O)c1=O [Compound 85],15
3,COCCn1c(-c2cccc(C)c2)ncc(C(=O)C2=C(O)C3CCC(C3)C2=O)c1=O (centres unmarked) [Compound 233],5

# Same assay, conditions: Postemergence, 125 g ai/ha; scale 0 to 100 (0 no effect, 100 complete control)
row,SMILES,"Plant response rating, Ryegrass, Italian"
1,O=C1CCCC(O)=C1C(=O)c1cnc(-c2ccccc2)n(CC2CCCO2)c1=O (centres unmarked) [Compound 59],5
2,COCCn1c(-c2ccccc2)ncc(C(=O)C2=C(O)CCCC2=O)c1=O [Compound 85],20
3,COCCn1c(-c2cccc(C)c2)ncc(C(=O)C2=C(O)C3CCC(C3)C2=O)c1=O (centres unmarked) [Compound 233],5

# Same assay, conditions: Postemergence; 16 g ai/ha; scale 0 to 100
row,SMILES,"Plant response rating, Ryegrass, Italian"
1,O=C1CCCC(O)=C1C(=O)c1cnc(-c2ccccc2)n(CC2CCCO2)c1=O (centres unmarked) [Compound 59],0
2,COCCn1c(-c2ccccc2)ncc(C(=O)C2=C(O)CCCC2=O)c1=O [Compound 85],0
3,COCCn1c(-c2cccc(C)c2)ncc(C(=O)C2=C(O)C3CCC(C3)C2=O)c1=O (centres unmarked) [Compound 233],0

# Same assay, conditions: Preemergence, 16 g ai/ha; scale 0 to 100, 0 no effect, 100 complete control
row,SMILES,"Plant response rating, Ryegrass, Italian"
1,O=C1CCCC(O)=C1C(=O)c1cnc(-c2ccccc2)n(CC2CCCO2)c1=O (centres unmarked) [Compound 59],0
2,COCCn1c(-c2ccccc2)ncc(C(=O)C2=C(O)CCCC2=O)c1=O [Compound 85],0
3,COCCn1c(-c2cccc(C)c2)ncc(C(=O)C2=C(O)C3CCC(C3)C2=O)c1=O (centres unmarked) [Compound 233],0

# Same assay, conditions: Preemergence, 31 g ai/ha; scale 0 to 100 (0 no effect, 100 complete control)
row,SMILES,"Plant response rating, Ryegrass, Italian"
1,O=C1CCCC(O)=C1C(=O)c1cnc(-c2ccccc2)n(CC2CCCO2)c1=O (centres unmarked) [Compound 59],0
2,COCCn1c(-c2ccccc2)ncc(C(=O)C2=C(O)CCCC2=O)c1=O [Compound 85],0
3,COCCn1c(-c2cccc(C)c2)ncc(C(=O)C2=C(O)C3CCC(C3)C2=O)c1=O (centres unmarked) [Compound 233],0

# Same assay, conditions: Preemergence, 125 g ai/ha; scale 0 to 100
row,SMILES,"Plant response rating, Ryegrass, Italian"
1,O=C1CCCC(O)=C1C(=O)c1cnc(-c2ccccc2)n(CC2CCCO2)c1=O (centres unmarked) [Compound 59],20
2,COCCn1c(-c2ccccc2)ncc(C(=O)C2=C(O)CCCC2=O)c1=O [Compound 85],20
3,COCCn1c(-c2cccc(C)c2)ncc(C(=O)C2=C(O)C3CCC(C3)C2=O)c1=O (centres unmarked) [Compound 233],20

# Test system: naked crabgrass (Digitaria nuda)
# Test: Test D pre-/postemergence plant response
# Assay type: in vivo
# Conditions: Postemergence, 31 g ai/ha; scale 0 to 100
# How it was run: as §1
row,SMILES,"Plant response rating, Crabgrass, Naked"
1,O=C1CCCC(O)=C1C(=O)c1cnc(-c2ccccc2)n(CC2CCCO2)c1=O (centres unmarked) [Compound 59],30
2,COCCn1c(-c2ccccc2)ncc(C(=O)C2=C(O)CCCC2=O)c1=O [Compound 85],50
3,COCCn1c(-c2cccc(C)c2)ncc(C(=O)C2=C(O)C3CCC(C3)C2=O)c1=O (centres unmarked) [Compound 233],50

# Same assay, conditions: Postemergence, 62 g ai/ha; scale 0 to 100 (0 no effect, 100 complete control)
row,SMILES,"Plant response rating, Crabgrass, Naked"
1,O=C1CCCC(O)=C1C(=O)c1cnc(-c2ccccc2)n(CC2CCCO2)c1=O (centres unmarked) [Compound 59],50
2,COCCn1c(-c2ccccc2)ncc(C(=O)C2=C(O)CCCC2=O)c1=O [Compound 85],75
3,COCCn1c(-c2cccc(C)c2)ncc(C(=O)C2=C(O)C3CCC(C3)C2=O)c1=O (centres unmarked) [Compound 233],60

# Same assay, conditions: Postemergence, 125 g ai/ha; scale 0 to 100 (0 no effect, 100 complete control)
row,SMILES,"Plant response rating, Crabgrass, Naked"
1,O=C1CCCC(O)=C1C(=O)c1cnc(-c2ccccc2)n(CC2CCCO2)c1=O (centres unmarked) [Compound 59],70
2,COCCn1c(-c2ccccc2)ncc(C(=O)C2=C(O)CCCC2=O)c1=O [Compound 85],80
3,COCCn1c(-c2cccc(C)c2)ncc(C(=O)C2=C(O)C3CCC(C3)C2=O)c1=O (centres unmarked) [Compound 233],70

# Same assay, conditions: Postemergence; 16 g ai/ha; scale 0 to 100
row,SMILES,"Plant response rating, Crabgrass, Naked"
1,O=C1CCCC(O)=C1C(=O)c1cnc(-c2ccccc2)n(CC2CCCO2)c1=O (centres unmarked) [Compound 59],20
2,COCCn1c(-c2cccc(C)c2)ncc(C(=O)C2=C(O)C3CCC(C3)C2=O)c1=O (centres unmarked) [Compound 233],30

# Same assay, conditions: Preemergence, 16 g ai/ha; scale 0 to 100, 0 no effect, 100 complete control
row,SMILES,"Plant response rating, Crabgrass, Naked"
1,O=C1CCCC(O)=C1C(=O)c1cnc(-c2ccccc2)n(CC2CCCO2)c1=O (centres unmarked) [Compound 59],0
2,COCCn1c(-c2ccccc2)ncc(C(=O)C2=C(O)CCCC2=O)c1=O [Compound 85],0
3,COCCn1c(-c2cccc(C)c2)ncc(C(=O)C2=C(O)C3CCC(C3)C2=O)c1=O (centres unmarked) [Compound 233],0

# Same assay, conditions: Preemergence, 31 g ai/ha; scale 0 to 100 (0 no effect, 100 complete control)
row,SMILES,"Plant response rating, Crabgrass, Naked"
1,O=C1CCCC(O)=C1C(=O)c1cnc(-c2ccccc2)n(CC2CCCO2)c1=O (centres unmarked) [Compound 59],0
2,COCCn1c(-c2ccccc2)ncc(C(=O)C2=C(O)CCCC2=O)c1=O [Compound 85],95
3,COCCn1c(-c2cccc(C)c2)ncc(C(=O)C2=C(O)C3CCC(C3)C2=O)c1=O (centres unmarked) [Compound 233],0

# Same assay, conditions: Preemergence, 62 g ai/ha; scale 0 to 100
row,SMILES,"Plant response rating, Crabgrass, Naked"
1,O=C1CCCC(O)=C1C(=O)c1cnc(-c2ccccc2)n(CC2CCCO2)c1=O (centres unmarked) [Compound 59],65
2,COCCn1c(-c2ccccc2)ncc(C(=O)C2=C(O)CCCC2=O)c1=O [Compound 85],95
3,COCCn1c(-c2cccc(C)c2)ncc(C(=O)C2=C(O)C3CCC(C3)C2=O)c1=O (centres unmarked) [Compound 233],65

# Same assay, conditions: Preemergence, 125 g ai/ha; scale 0 to 100
row,SMILES,"Plant response rating, Crabgrass, Naked"
1,O=C1CCCC(O)=C1C(=O)c1cnc(-c2ccccc2)n(CC2CCCO2)c1=O (centres unmarked) [Compound 59],95
2,COCCn1c(-c2ccccc2)ncc(C(=O)C2=C(O)CCCC2=O)c1=O [Compound 85],98
3,COCCn1c(-c2cccc(C)c2)ncc(C(=O)C2=C(O)C3CCC(C3)C2=O)c1=O (centres unmarked) [Compound 233],65

# Test system: purslane (common purslane, Portulaca oleracea)
# Test: Test D pre-/postemergence plant response
# Assay type: in vivo
# Conditions: Postemergence, 31 g ai/ha; scale 0 to 100
# How it was run: as §1
row,SMILES,"Plant response rating, Purslane"
1,O=C1CCCC(O)=C1C(=O)c1cnc(-c2ccccc2)n(CC2CCCO2)c1=O (centres unmarked) [Compound 59],35
2,COCCn1c(-c2ccccc2)ncc(C(=O)C2=C(O)CCCC2=O)c1=O [Compound 85],80
3,COCCn1c(-c2cccc(C)c2)ncc(C(=O)C2=C(O)C3CCC(C3)C2=O)c1=O (centres unmarked) [Compound 233],30

# Same assay, conditions: Postemergence, 62 g ai/ha; scale 0 to 100 (0 no effect, 100 complete control)
row,SMILES,"Plant response rating, Purslane"
1,O=C1CCCC(O)=C1C(=O)c1cnc(-c2ccccc2)n(CC2CCCO2)c1=O (centres unmarked) [Compound 59],35
2,COCCn1c(-c2ccccc2)ncc(C(=O)C2=C(O)CCCC2=O)c1=O [Compound 85],90
3,COCCn1c(-c2cccc(C)c2)ncc(C(=O)C2=C(O)C3CCC(C3)C2=O)c1=O (centres unmarked) [Compound 233],30

# Same assay, conditions: Postemergence, 125 g ai/ha; scale 0 to 100 (0 no effect, 100 complete control)
row,SMILES,"Plant response rating, Purslane"
1,O=C1CCCC(O)=C1C(=O)c1cnc(-c2ccccc2)n(CC2CCCO2)c1=O (centres unmarked) [Compound 59],50
2,COCCn1c(-c2ccccc2)ncc(C(=O)C2=C(O)CCCC2=O)c1=O [Compound 85],90
3,COCCn1c(-c2cccc(C)c2)ncc(C(=O)C2=C(O)C3CCC(C3)C2=O)c1=O (centres unmarked) [Compound 233],40

# Same assay, conditions: Postemergence; 16 g ai/ha; scale 0 to 100
row,SMILES,"Plant response rating, Purslane"
1,O=C1CCCC(O)=C1C(=O)c1cnc(-c2ccccc2)n(CC2CCCO2)c1=O (centres unmarked) [Compound 59],35
2,COCCn1c(-c2ccccc2)ncc(C(=O)C2=C(O)CCCC2=O)c1=O [Compound 85],75
3,COCCn1c(-c2cccc(C)c2)ncc(C(=O)C2=C(O)C3CCC(C3)C2=O)c1=O (centres unmarked) [Compound 233],30

# Same assay, conditions: Preemergence, 16 g ai/ha; scale 0 to 100, 0 no effect, 100 complete control
row,SMILES,"Plant response rating, Purslane"
1,O=C1CCCC(O)=C1C(=O)c1cnc(-c2ccccc2)n(CC2CCCO2)c1=O (centres unmarked) [Compound 59],65
2,COCCn1c(-c2ccccc2)ncc(C(=O)C2=C(O)CCCC2=O)c1=O [Compound 85],80
3,COCCn1c(-c2cccc(C)c2)ncc(C(=O)C2=C(O)C3CCC(C3)C2=O)c1=O (centres unmarked) [Compound 233],0

# Same assay, conditions: Preemergence, 31 g ai/ha; scale 0 to 100 (0 no effect, 100 complete control)
row,SMILES,"Plant response rating, Purslane"
1,O=C1CCCC(O)=C1C(=O)c1cnc(-c2ccccc2)n(CC2CCCO2)c1=O (centres unmarked) [Compound 59],100
2,COCCn1c(-c2ccccc2)ncc(C(=O)C2=C(O)CCCC2=O)c1=O [Compound 85],100
3,COCCn1c(-c2cccc(C)c2)ncc(C(=O)C2=C(O)C3CCC(C3)C2=O)c1=O (centres unmarked) [Compound 233],0

# Same assay, conditions: Preemergence, 62 g ai/ha; scale 0 to 100
row,SMILES,"Plant response rating, Purslane"
1,O=C1CCCC(O)=C1C(=O)c1cnc(-c2ccccc2)n(CC2CCCO2)c1=O (centres unmarked) [Compound 59],100
2,COCCn1c(-c2ccccc2)ncc(C(=O)C2=C(O)CCCC2=O)c1=O [Compound 85],100
3,COCCn1c(-c2cccc(C)c2)ncc(C(=O)C2=C(O)C3CCC(C3)C2=O)c1=O (centres unmarked) [Compound 233],100

# Same assay, conditions: Preemergence, 125 g ai/ha; scale 0 to 100
row,SMILES,"Plant response rating, Purslane"
1,O=C1CCCC(O)=C1C(=O)c1cnc(-c2ccccc2)n(CC2CCCO2)c1=O (centres unmarked) [Compound 59],100
2,COCCn1c(-c2ccccc2)ncc(C(=O)C2=C(O)CCCC2=O)c1=O [Compound 85],100
3,COCCn1c(-c2cccc(C)c2)ncc(C(=O)C2=C(O)C3CCC(C3)C2=O)c1=O (centres unmarked) [Compound 233],100
